These results are taken from US20120301551A1, “COMPOUNDS AND COMPOSITIONS FOR TREATING NEURONAL DEATH OR NEUROLOGICAL DYSFUNCTION” (Neurotech Pharmaceuticals Co., Ltd., priority 2005, published 2012).

Data set [1] relates to mixed cortical cell cultures containing neurons and glia. The data set can be described thus: Fe2+-induced free radical neurotoxicity in mixed cortical cell cultures (LDH release). Conditions: for IC50: 50 μM FeCl2, neuronal death 24 hr later (LDH), read-out: IC50 (50% protection against Fe^2+-induced free radical neurotoxicity). It counts as cell-based, mouse. The protocol:
Mouse cortical cell cultures (DIV 11-15) were exposed to 50 μM Fe^2+ or 10 mM BSO, alone or with inclusion of 5 mM Li^+. Neuronal death was analyzed 24 hr later by measuring levels of LDH released into the bathing medium, mean±SEM (n=9-12 culture wells per condition).
Mouse cortical cell cultures (DIV 11-15) were exposed to 30 μM Fe^2+ or 10 mM BSO, alone or in the presence of 1 μM 2-hydroxy TTBA, 10-100 μM vitamin E, or 5 mM Li^+.
For mixed neuron-glia culture, mouse cerebral cortices were removed from brains of the 11-15 day-old-fetal mice (E11-15), gently triturated and plated on 24 well plates (2×10^5 cells/plate) precoated with 100 μg/ml poly-D-lysine and 4 pg/ml laminin. Cultures were maintained at 37° C. in a humidified 5% CO2 atmosphere.
After 7-8 days in vitro (DIV 7-8), 10 μM cytosine arabinofuranoside (Ara-C) was included to halt overgrowth of glia. The drug treatment was carried on DIV 11-15 cortical cell culture.
Oxidative stress was induced by exposing mixed cortical cell cultures containing neurons and glia (DIV 11-15) to 50 μM FeCl2, a hydroxyl radical-producing transition metal via a Fenton reaction, or 10 mM DL-buthionine-[S,R]-sulfoximine (BSO), a glutathione depleting agent.

Data set [2] in a line: single-dose toxicity test. The settings on record: mouse, in vivo. The protocol: Single-dose toxicity test of compounds showing good results in the above three efficacy tests were evaluated.
For data set [3], the system named is beta-amyloid (Aβ42). The data set can be described thus: suppression of beta-amyloid (Aβ42) production in CHO cells (ELISA). Conditions: Cricetulus griseus; CHO cells stably transfected with human wild APP695 and PS1ΔExon9; culture medium, ELISA; read-out: Aβ42 lowering effect (IC50). It counts as cell-based, Chinese hamster. The protocol: The suppressing effects of many drug candidates on production of beta-amyloid were evaluated in CHO cell line having the increased level of beta-amyloid. Results were shown as IC50 (uM) (Item C of Table 3 below).
In the Table 3, A, B and C mean neuron protecting effect against Fe^+2, suppressing effect on production of NO and suppressing effect on production of beta-amyloid, respectively. The term “ND” means “Not determined.”
Cells were treated with increasing concentrations of various chemicals in Chinese hamster ovary (CHO) cells stably transfected with human wild APP695 and the PS1ΔExon9, and analyzed Aβ42 levels in culture medium by colorimetric sandwich ELISA kit (BIOSOURCE, Camarillo, Calif.). In CHO cells, IC50 of Chemical—01-08 on Aβ42 lowering effect was 20-100 uM (Table 4).

The test system of data set [4] is neuron-rich cortical cell cultures. The data set can be described thus: serum deprivation-induced neuronal cell apoptosis. The settings on record: 24 hr; 5 mM Li^+, 100 μM zVADfmk, 1 μM 2-hydroxy TTBA. It counts as cell-based, mouse. On the procedure:
(B) Neuron-rich cortical cell cultures (DIV 7) were deprived of serum, alone or with addition of 100 μM zVADfmk, 1 μM 2-hydroxy TTBA, or 5 mM Li^+. Neuronal death was analyzed 24 hr later by counting viable neurons excluding trypan (mean±SEM, n=4). *, Significant difference from the relevant control (serum deprivation alone), p<0.05 using ANOVA and Student-Neuman-Keuls test. (C) Western blot analysis of FADD antibody following immunoprecipitation with Fas antibody in the same samples above.
Additional experiments were performed to examine if targeting both neuronal cell necrosis and apoptosis would result in synergic neuroprotection in […] transgenic mice. […] Neuronal cell apoptosis was induced by serum deprivation in neuron-rich cortical cell cultures as reported, which was prevented by addition of 5 mM Li^+ as well as zVADfmk, a broad spectrum inhibitor of caspases (FIG. 5B). […] Additional experiments were performed to examine if Li^+ would prevent Fas signaling pathway. […] This implies that 2-Hydroxy-TTBA and Li^+ blocks oxidative neuronal cell necrosis and apoptosis, respectively.

In data set [5] the test system is cortical cell cultures containing neurons and glia. The data set can be described thus: cyclosporine A or calyculin A-induced neuronal cell apoptosis in cortical cell cultures. It is filed as cell-based, mouse. The settings on record: 20 μM cyclosporine A, 24 hr, 100 μM Vitamin E, 1 μM 2-hydroxy-TTBA, 1 μM 2-hydroxy-TPEA. The protocol:
Mouse cortical cell cultures (DIV 10-12) were exposed to 20 μM cyclosporine A or 10 nM calculin A, alone or with inclusion of 0.3-30 mM Li. Neuronal death was analyzed 24-28 hr later by measuring levels of LDH released into the bathing medium, mean±SEM (n=9-12 culture wells per condition).
Mouse cortical cell cultures (DIV 10-12) were exposed to 20 μM cyclosporine A, alone or with 100 μM Vitamin E, 1 μM 2-hydroxy-TTBA, or 1 μM 2-hydroxy-TPEA. Neuronal death was analyzed 24 hr later by measuring levels of LDH released into the bathing medium, mean±SEM (n=9-12 culture wells per condition).
Cortical cell cultures containing neurons and glia at 10-12 days in vitro (DIV 10-12) were exposed to 20 μM cyclosporine A (CsA) or 10 nM caliculin A (cal A). Neurons underwent widespread apoptosis 24 hr later as previously reported (McDonald et al., 1996; Ko et al., 2000). […] This implies that Li^+ and the neuroprotective drugs (vitamin E, trolox, BAS, CBAS, FBAS, TBAS, PBAS, MBAS, NPAA, NPPAA, 2-Hydroxy-TTBA, and 2-Hydroxy-TPEA) selectively prevent neuronal cell apoptosis and free radical-mediated necrosis, respectively.

Like-named read-outs stand apart in the source and are kept apart here. Residues, ends and D or L forms follow the SMILES beside them. *: point of attachment. Cbz = O=C(OCc1ccccc1)*; CH2F = FC*

As to `O=C(O)c1cc(NCc2ccc(Cl)cc2)ccc1O` [CBAS], the IC50 in data set [1] came out at 0.2 µM.

For the molecule `O=C(O)c1cc(NCc2ccc(F)cc2)ccc1O` [FBAS], in data set [1], the IC50 was found to be 0.3 µM.

As for `COc1ccc(CNc2ccc(O)c(C(=O)O)c2)cc1` [MBAS, 5-(4-methoxybenzyl)aminosalicylic acid], the half-maximal inhibitory concentration (IC50) in data set [1] (Mus musculus, Neuron) turned out to be 1.42 µM.

Take `O=C(O)c1cc(NCc2ccc([N+](=O)[O-])cc2)ccc1O` [NBAS, 5-(4-nitrobenzyl)aminosalicylic acid]: the IC50 in data set [1] (Mus musculus, Neuron) was found to be 1.9 µM.

In the case of `O=C(O)c1cc(NCCc2ccc([N+](=O)[O-])cc2)ccc1O` [NPAA, 5-[2-(4-nitrophenyl)-ethyl]aminosalicylic acid], the IC50 in data set [1] (Mus musculus, Neuron) was found to be 0.27 µM.

As to `O=C(O)c1cc(NCCCc2ccc([N+](=O)[O-])cc2)ccc1O` [NPPAA, 5-[3-(4-nitrophenyl)-n-propyl]aminosalicylic acid], the IC50 in data set [1] (Mus musculus, Neuron) worked out at 0.2 µM.

On to `O=C(O)c1cc(NCc2c(F)c(F)c(F)c(F)c2F)ccc1O` [PBAS, 5-(pentafluoro-benzyl)aminosalicylic acid], for which, in data set [1], the IC50 worked out at 0.1 µM.

Regarding `O=C(O)c1cc(NCc2ccc(C(F)(F)F)cc2)ccc1O` [TBAS], in data set [1], the IC50 amounted to 0.31 µM.

For `Cc1c(C)c2c(c(C)c1O)CCC(C)(C(=O)O)O2` (stereo not shown) [Trolox, reference compound], the concentration for half-maximal inhibition (IC50) in data set [1] (Mus musculus, Neuron) stood at 3.34 µM.

On to `O=C(O)c1cc(NCCc2cccc(C(F)(F)F)c2)ccc1O` [chemical 04, 2-Hydroxy-5-[2-(3-trifluoromethyl-phenyl)-ethylamino]-benzoic acid], for which, in data set [2], the “single-dose toxicity, result in words” value was “high toxicity or dose-independent toxicity”.

As for `O=C(O)c1cc(NCCc2cc(C(F)(F)F)cc(C(F)(F)F)c2)ccc1O` [chemical 27, 5-[2-(3,5-Bis-trifluoromethyl-phenyl)-ethylamino]-2-hydroxy-benzoic acid], the IC50 in data set [3] amounted to 109 µM. In addition, in data set [2], the “single-dose toxicity, result in words” value is “did not show dose-dependent result”.

Consider `O=C(O)c1cc(NCCCc2ccc(C(F)(F)F)cc2)ccc1O` [chemical 42, 2-Hydroxy-5-[3-(4-trifluoromethyl-phenyl)-propylamino]-benzoic acid], for which the IC50 in data set [3] turned out to be 68.3 µM. Besides, the “single-dose toxicity, result in words” value in data set [2] is reported as “high toxicity or dose-independent toxicity”.

On to `COC(=O)C[C@H](NC(=O)[C@H](C)NC(=O)[C@@H](NC(=O)OCc1ccccc1)C(C)C)C(=O)CF` [zVADfmk] (Cbz-Val-Ala-Asp(OMe)-CH2F), for which the “serum deprivation-induced neuronal cell apoptosis, effect in words” value in data set [4] is “prevented”.

For the molecule Vitamin E [reference compound], the IC50 in data set [1] stood at 22 µM. In data set [1] (50 μM Fe^2+, 24 hr, 2-Hydroxy-TTBA or 2-Hydroxy-TPEA at doses as low as 0.3 μM, vitamin E at higher doses, Li^+ 10 mM (legend 5 mM)), the “Fe^2+-induced free radical neurotoxicity, effect in words” value is listed as “prevented”. Moreover, the figures for the “cyclosporine A-induced neuronal cell apoptosis, effect in words” value in data set [5] and in data set [5] (listed as vitamin E) were “do not attenuate” and “not attenuated”, respectively.
